Data as given in patent US9511107B2, “Phenolic compositions derived from apple skin and uses thereof” (priority 2010, dated 2016).

Key:
primary cortical neurons = assay: LDH release of primary cortical neurons subjected to oxygen glucose deprivation (OGD); format: cell-based, mouse; settings: comparison with F4; concentration not given
Procedure: Lactate dehydrogenase is a stable cytosolic enzyme that is released by necrotic cells upon membrane damage. The membrane integrity of cortical neurons was assayed by measuring the release of lactate dehydrogenase (LDH) using the Cytotoxicity Detection Kit^PLUS (Roche Applied Science). This assay kit detects LDH released into culture supernates by a coupled enzymatic reaction. Positive (100% LDH release) and negative (spontaneous LDH release) controls were prepared in triplicate according to the manufacturer's instructions. Primary cortical neuron cultures were prepared from cerebral cortices of embryonic day 16 CD1 mouse embryos. Cortical neuron cultures were exposed to vehicle (0.1% dimethyl sulfoxide (DMSO)) or F4 at concentrations of 1, 0.1 or 0.01 μg/mL in serum-free conditions for a period of 12 h before they were subjected to oxygen glucose deprivation (OGD). The neurons were exposed to vehicle or F4 at concentrations of 1, 0.1 or 0.01 μg/mL phenolics throughout the 12 h period of OGD. Following, cell culture supernates were collected for determination of released LDH. Absorbance was measured at 490 nm with a reference wavelength of 620 nm. Percentage of total LDH release was calculated by following the instructions provided by the manufacturer. Background was subtracted and LDH release in each sample was expressed as a percentage of the positive control.

[1] = humans, 1 g per day for 1 month; cited from earlier work

Structure (SMILES)	reduction of death of primary cortical neurons subjected to OGD (F4 components and metabolites, FIG. 7) (primary cortical neurons)	safety [1]
O=c1c(O[C@@H]2O[C@H](CO)[C@@H](O)[C@H](O)[C@H]2O)c(-c2ccc(O)c(O)c2)oc2cc(O)cc(O)c12 [Fraction Q3G, quercetin 3-O-glucoside]	no significant reduction	–
O=c1c(O)c(-c2ccc(O)c(O)c2)oc2cc(O)cc(O)c12 [Q, Quercetin]	no significant reduction	safe
COc1cc(-c2oc3cc(O)cc(O)c3c(=O)c2O[C@@H]2O[C@H](C(=O)O)[C@@H](O)[C@H](O)[C@H]2O)ccc1O [IR3GlcA]	no significant reduction	–
